From patent US12454525B2, “IL4I1 inhibitors and methods of use” (Merck Sharp & Dohme LLC, priority 2020, dated 2025)

Molecular target: T1, recombinant IL4I1 (Homo sapiens, UniProt Q96RQ9)
T1 construct: purchased R&D Systems 5684-AO-020
T1 sequence (Q96RQ9 22-567): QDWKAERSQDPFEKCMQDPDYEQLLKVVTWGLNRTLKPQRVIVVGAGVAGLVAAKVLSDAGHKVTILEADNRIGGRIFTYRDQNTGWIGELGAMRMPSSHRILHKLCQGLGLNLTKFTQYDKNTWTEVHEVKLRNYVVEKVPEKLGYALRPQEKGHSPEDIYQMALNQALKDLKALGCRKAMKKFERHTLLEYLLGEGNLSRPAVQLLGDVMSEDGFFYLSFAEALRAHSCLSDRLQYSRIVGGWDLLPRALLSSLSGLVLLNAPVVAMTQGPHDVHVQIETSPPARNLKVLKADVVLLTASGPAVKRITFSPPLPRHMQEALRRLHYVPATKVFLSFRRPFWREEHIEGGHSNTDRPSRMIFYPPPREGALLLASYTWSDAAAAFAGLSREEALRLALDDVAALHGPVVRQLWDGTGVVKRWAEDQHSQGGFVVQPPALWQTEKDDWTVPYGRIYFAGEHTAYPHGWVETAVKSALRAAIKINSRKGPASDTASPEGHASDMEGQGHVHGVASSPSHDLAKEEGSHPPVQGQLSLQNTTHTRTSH
Assay: IL4I1 Enzymatic Assay (Amplex Red/HRP coupled H2O2 detection)
Assay type: biochemical
Details: 240 min; four-hour pre-incubation with compound; 1 nM IL4I1, 1 mM each Phe/Tyr/Trp; ten-point titration; fluorescence readout; read-out: Potency EC50 (nM) (240 min)
Protocol: Interleukin 4 inducible protein 1 (IL4I1) is an L-amino oxidase that catalyzes the oxidation of aromatic residues (Phe, Trp and Tyr): L-amino acid+H2O+O2→2-oxo acid+NH3+H2O2. Equal molar of H2O2 and the corresponding alpha-ketoacid are produced when IL4I1 and substrate are added. In this assay, the hydrogen peroxide generated by IL4I1 is then detected through a coupled reaction with Amplex Red (10-acetyl-3,7-dihydroxyphenoxazine) and […] (HRP) to produce Resorufin product that could be detected in the form of fluorescence signals. The assessment of the inhibitory effect of small molecules (EC50) on IL4I1 is measured by the effectiveness of the compounds to inhibit the production of H2O2.
Using this assay, the potency (EC50) of each compound was determined from a ten-point (1:3 serial dilution) titration curve using the following outlined procedure. To each well of a black flat-bottom Greiner (Cat #781076) 384 well-plate, 25 nL of compound (0.1% DMSO in final assay volume of 25 μL) was dispensed, followed by the addition of 12.5 μL of 1x assay buffer (50 mM Hepes 7.0 and 0.005% Tween20 (Sigma, Cat #P8341; low peroxide grade)) containing 2 nM of recombinant IL4I1 (R&D Systems, Cat #5684-AO-020). Plates were placed in an ambient temperature humidified chamber for a four-hour pre-incubation with compound. Subsequently, each reaction was initiated by the addition of 12.5 μL 1x assay buffer containing 2 mM of each aromatic amino acids (Phe/Tyr/Trp), 0.1 mM Amplex Red and 2 U/mL of HRP. The final reaction in each well of 25 μL consists of 1 nM of IL411, 1 mM of each residues (Phe, Tyr and Trp), 0.05 mM Amplex Red and 1 U/mL of HRP. It should be noted that the concentrations of Amplex Red and HRP used here are in excess such that the conversion of H2O2 to Resorufin product occurs instantaneously and non-rate limiting. Reactions were allowed to proceed for 120 minutes followed by fluorescence readout on a Spectramax with the following set parameters: 544 nm excitation/590 nm emission, 570 nm cutoff (EnVision is an alternative reader). Dose-response curves were generated by plotting percent effect (% product conversion; Y-axis) vs. Log10 compound concentrations (X-axis). EC50 values were calculated using a non-linear regression, four-parameters sigmoidal dose-response model and are shown in Table 16.

Structure (SMILES)	EC50
O=C1CCCN1Cc1c(F)cc(Cn2c(=O)[nH]c3ccccc32)cc1F [Example 23, 1-({3,5-difluoro-4-[(2-oxopyrrolidin-1-yl)methyl]phenyl}methyl)-1,3-dihydro-2H-benzimidazol-2-one]	18 nM
C[C@H]1COC(=O)N1Cc1ccc(Cn2c(=O)[nH]c3ccccc32)cc1 [Example 83, (S)-4-methyl-3-(4-((2-oxo-2,3-dihydro-1H-benzo[d]imidazol-1-yl)methyl)benzyl) oxazolidin-2-one]	13 nM
CCc1ccc2c(c1)[nH]c(=O)n2Cc1ccccc1 [Example 109, 1-benzyl-5-ethyl-1,3-dihydro-2H-benzo[d]imidazol-2-one]	4940 nM
O=c1[nH]c2sccc2n1Cc1ccccc1 [Example 112, 1-benzyl-1,3-dihydro-2H-thieno[2,3-d]imidazol-2-one]	1320 nM
N#Cc1cc(Cn2c(=O)[nH]c3ccccc32)ccc1CN1CCCC1=O [Example 24, 5-((2-oxo-2,3-dihydro-1H-benzo[d]imidazol-1-yl)methyl)-2-((2-oxopyrrolidin-1-yl)methyl) benzonitrile]	24 nM
N#CC1(Cc2ncc(Cn3c(=O)[nH]c4ccccc43)cc2Cl)CCC1 [Example 79, 1-((3-chloro-5-((2-oxo-2,3-dihydro-1H-benzo[d]imidazol-1-yl)methyl)pyridin-2-yl)methyl)cyclobutane-1-carbonitrile]	113 nM
CC(c1ccccc1)n1c(=O)[nH]c2ccccc21 (centres unmarked) [Example 87, 1-(1-phenylethyl)-1,3-dihydro-2H-benzo[d]imidazol-2-one]	8900 nM
O=c1[nH]c2ccccc2n1CC1CCCOC1 (centres unmarked) [Example 59, 1-[(oxan-3-yl)methyl]-1,3-dihydro-2H-benzimidazol-2-one]	2930 nM
Cn1c(=O)n(Cc2cccc(OC(F)(F)F)c2)c2ccccc21 [Example 89, 1-methyl-3-(3-(trifluoromethoxy)benzyl)-1,3-dihydro-2H-benzo[d]imidazol-2-one]	29 nM
CC(=O)NC1CCc2ccc(Cn3c(=O)[nH]c4ccccc43)cc21 (single isomer, unassigned) [Example 45, N-(6-((2-oxo-2,3-dihydro-1H-benzo[d]imidazol-1-yl)methyl)-2,3-dihydro-1H-inden-1-yl)acetamide]	21 nM
COC1(C(=O)NCc2ccc(Cn3c(=O)[nH]c4ccccc43)cc2)CC1 [Example 96, 1-methoxy-N-(4-((2-oxo-2,3-dihydro-1H-benzo[d]imidazol-1-yl)methyl)benzyl)cyclopropane-1-carboxamide]	21 nM
CC1NC(=O)c2cc(Cn3c(=O)[nH]c4ccccc43)ccc21 (centres unmarked) [Example 33, 1-[(1-methyl-3-oxo-2,3-dihydro-1H-isoindol-5-yl)methyl]-1,3-dihydro-2H-benzimidazol-2-one]	15 nM
O=c1[nH]c2ccc(F)cc2n1Cc1ccc2c(c1)CCC2 [Example 70, 1-((2,3-dihydro-1H-inden-5-yl)methyl)-6-fluoro-1,3-dihydro-2H-benzo[d]imidazol-2-one]	14 nM
CC(=O)NC(C)(C)c1ccc(Cn2c(=O)[nH]c3ccccc32)cc1 [Example 51, N-(2-{4-[(2-oxo-2,3-dihydro-1H-benzimidazol-1-yl)methyl]phenyl}propan-2-yl)acetamide]	54 nM
O=c1[nH]c2ccccc2n1CCCOc1cccc2cccnc12 [Example 97, 1-(3-(quinolin-8-yloxy)propyl)-1,3-dihydro-2H-benzo[d]imidazol-2-one]	45 nM
O=C1CCCN1Cc1ncc(Cn2c(=O)[nH]c3ccccc32)cc1Cl [Example 25, 1-((5-chloro-6-((2-oxopyrrolidin-1-yl)methyl)pyridin-3-yl)methyl)-1,3-dihydro-2H-benzo[d]imidazol-2-one]	47 nM
O=C1CCCN1Cc1ccc(Cn2c(=O)[nH]c3ccccc32)cc1I [Example 19, 1-(3-iodo-4-((2-oxopyrrolidin-1-yl)methyl)benzyl)-1,3-dihydro-2H-benzo[d]imidazol-2-one]	14 nM
O=c1[nH]c2c(F)cccc2n1Cc1ccccc1 [Example 68, 1-benzyl-4-fluoro-1,3-dihydro-2H-benzo[d]imidazol-2-one]	1390 nM

The next molecules have a lower EC50 than those just listed; values first:

EC50	Structure (SMILES)
7 nM	O=c1[nH]c2ccccc2n1Cc1cccc(-c2nnco2)c1 [Example 27, 1-(3-(1,3,4-oxadiazol-2-yl)benzyl)-1,3-dihydro-2H-benzo[d]imidazol-2-one]
6 nM	O=c1[nH]c2ccccc2n1Cc1ccc(Cc2nnco2)c(Cl)c1 [Example 4, 1-(4-((1,3,4-oxadiazol-2-yl)methyl)-3-chlorobenzyl)-1,3-dihydro-2H-benzo[d]imidazol-2-one]
9 nM	O=c1[nH]c2ccccc2n1Cc1cc(C(F)F)cc(C(F)F)c1 [Example 30, 1-{[3,5-bis(difluoromethyl)phenyl]methyl}-1,3-dihydro-2H-benzimidazol-2-one]
5 nM	CNC(=O)Cc1ccc(Cn2c(=O)[nH]c3ccccc32)cc1 [Example 107, N-methyl-2-(4-((2-oxo-2,3-dihydro-1H-benzo[d]imidazol-1-yl)methyl)phenyl)acetamide]
4 nM	O=C(Cc1cccc(Cn2c(=O)[nH]c3ccccc32)c1)Nc1cccnc1 [Example 103, 2-(3-((2-oxo-2,3-dihydro-1H-benzo[d]imidazol-1-yl)methyl)phenyl)-N-(pyridin-3-yl)acetamide]
9 nM	CC(=O)NCc1ccc(Cn2c(=O)n(C(F)F)c3ccccc32)cc1 [Example 76, N-(4-((3-(difluoromethyl)-2-oxo-2,3-dihydro-1H-benzo[d]imidazol-1-yl)methyl)benzyl)acetamide]
9 nM	CNC(=O)C1CCc2cc(Cn3c(=O)[nH]c4ccccc43)ccc21 (single isomer, unassigned) [Example 46, N-methyl-5-((2-oxo-2,3-dihydro-1H-benzo[d]imidazol-1-yl)methyl)-2,3-dihydro-1H-indene-1-carboxamide]
2 nM	N#CC1(c2cccc(Cn3c(=O)[nH]c4ccccc43)c2)CC1 [Example 35, 1-{3-[(2-oxo-2,3-dihydro-1H-benzimidazol-1-yl)methyl]phenyl} cyclopropane-1-carbonitrile]
10 nM	O=C1N(Cc2ccc(Cn3c(=O)[nH]c4ccccc43)cc2)CCC1(F)F [Example 43, 1-(4-((3,3-difluoro-2-oxopyrrolidin-1-yl)methyl)benzyl)-1,3-dihydro-2H-benzo[d]imidazol-2-one]
10 nM	CN(C)C(=O)Cc1cccc(Cn2c(=O)[nH]c3ccccc32)c1 [Example 105, N,N-dimethyl-2-(3-((2-oxo-2,3-dihydro-1H-benzo[d]imidazol-1-yl)methyl)phenyl)acetamide]
8 nM	O=c1[nH]c2ccccc2n1C[C@@H]1C[C@H]1c1ccccc1 [Example 61, 1-{[(1R,2R)-2-phenylcyclopropyl]methyl}-1,3-dihydro-2H-benzimidazol-2-one]
8 nM	CS(=O)(=O)NCc1ccc(Cn2c(=O)[nH]c3ccccc32)cc1 [Example 12, N-(4-((2-oxo-2,3-dihydro-1H-benzo[d]imidazol-1-yl)methyl)benzyl)methanesulfonamide]
8 nM	CN(Cc1ccc(Cn2c(=O)[nH]c3ccccc32)cc1)S(C)(=O)=O [Example 21, N-methyl-N-({4-[(2-oxo-2,3-dihydro-1H-benzimidazol-1-yl)methyl]phenyl}methyl) methanesulfonamide]
5 nM	CNC(=O)c1cccc(Cn2c(=O)[nH]c3ccccc32)c1 [Example 29, N-methyl-3-[(2-oxo-2,3-dihydro-1H-benzimidazol-1-yl)methyl]benzamide]
